According to patent US12108719B2, “Methods for creating doubled haploid plants” (Monsanto Technology LLC, priority 2015, dated 2024):

What was measured:
[1] = tested on: induced haploid germplasms (A and B); assay: Co-dominant ear induction by PBZ soil drench in colchicine-treated haploid maize (Example 1); type: in vivo
Description: V1-V3 seedlings of two unique F1 hybrid-derived haploid maize lines, derived from: female heterotic group (Germplasm A) or male heterotic group (Germplasm B), were subjected to a bulk colchicine-based chromosome doubling treatment by removing the seedlings from soil or growth media at the V1-V3 growth stage and aligning their stems and wrapping them together along with several wooden rods into bundle a held together by a strip of aluminum foil (approximate foil strip dimensions were 6 in×18 in). The bundled plants were submerged in plant treatment solution comprising 1250 ppm of colchicine in a centrifuge container and then the entire sample was centrifuged at 50 g for 3 min while the shoot apical meristems (SAMs) remained submerged in the plant treatment agent solution.
Following the first centrifugation, the plant treatment solution was decanted and the seedlings subjected to an addition centrifugation at 335 g for 3 min. During the second centrifugation, the rod-wrap bundle supported the seedlings and prevented the SAMs from contacting the reserve treatment agent that was not absorbed by the plant during application of the centrifugal force.
Following the second centrifugation, the plants were removed from the centrifugation container and the rod-wrap bundle and rinsed with water to remove any remaining colchicine solution, and then recovered and tended in a light, humidity, and temperature-controlled greenhouse for several days before being transplanted to a nursery greenhouse. These centrifuge-based treatment methods are described in more detail in International application number PCT/US2015/028955, which is incorporated by reference herein in its entirety, however, standard doubling treatments can also be applied to any of the haploid doubling steps referred to herein.
Following colchicine doubling treatment, 15-20 plants from each germplasm were planted in pots at two different densities; either as single plants per pot (singles), or as two plants per pot (pairs).
Next, each plant received one of two different doses of PBZ, either 50 mL (low dose) or 60 mL (high dose) of a 2.5% PBZ solution (v/v; 0.4% of active ingredient) in water. These two different doses were applied by soil drench at either the V7 or V8 growth stage, which occurred a total of 23 or 26 days after the seedlings had been subjected to chromosome doubling treatment, respectively. A control group of plants received no treatment solution but were otherwise treated exactly as the experimental groups planted as singles. When pollen shed began at the tassels, the average number of silk-producing ears (i.e. co-dominant ears) were counted for each dosage, germplasm, and treatment time and the results summarized in Table. 1.

DH0 plants = assay: Ears classified by number of DH1 seed produced, first 3 co-dominant ears (Example 4); type: in vivo, maize; set-up: key: Class A ears produced approximately 50 seeds; Class B ears produced approximately 20-49 seeds; Class C ears produced approximately 1-20 seeds; Class 0 ears produced zero seeds; “—” represents a situation where a third ear was not formed by the plant
Description: When the DH1 ears were harvested in the experiment described in Example 3, four DH0 plants selected randomly from each germplasm were subjected to further scrutiny comprising recording of the approximate number of seeds produced from the first 3 co-dominant ears for each plant. […] In Table 4, ears are assigned to one of 4 categories, depending on the approximate number of seeds they produced: Class A ears produced approximately 50 seeds, Class B ears produced approximately 20-49 seeds, Class C ears produced approximately 1-20 seeds, and Class 0 ears produced zero seeds.

`CC(C)(C)[C@H](O)[C@H](Cc1ccc(Cl)cc1)n1cncn1` (relative stereo) [PBZ, (2S,3S)-1-(4-chlorophenyl)-4,4-dimethyl-2-(1,2,4-triazol-1-yl) pentan-3-ol] was tested, and the “number of co-dominant ears formed per plant” value ([1]; V7, Germplasm A, planted as pairs, low dose (50 mL 2.5% PBZ)) was 3, the “average EP of high dosage greater than EP of low dosage” value ([1]; all plants, high vs low dosage) was 0.31 and the “high-dose EP average higher than the low-dose” value ([1]; only the singles) was 0.55. The “minimum increase of EP over control plants” value ([1]; singles subjected to the low dose) was no less than 1.2 EP, the “Ears classified by the number of DH1 seed they produced” value (from here on “Ears classified by the number”) (DH0 plants; A, Plant 1, 1st ear) was “C (Class C ears produced approximately 1-20 seeds)” and the “Ears classified by the number” value (DH0 plants; A, Plant 1, 2nd ear) was “B (Class B ears produced approximately 20-49 seeds)”. The “Ears classified by the number” value (DH0 plants; A, Plant 1, 3rd ear) was “C (Class C ears produced approximately 1-20 seeds)”, the “Ears classified by the number” value (DH0 plants; A, Plant 2, 1st ear) was “C (Class C ears produced approximately 1-20 seeds)” and the “Ears classified by the number” value (DH0 plants; A, Plant 2, 2nd ear) was “A (Class A ears produced approximately 50 seeds)”. For the same compound, the “Ears classified by the number” value (DH0 plants; A, Plant 2, 3rd ear) was “C (Class C ears produced approximately 1-20 seeds)”, the “Ears classified by the number” value (DH0 plants; A, Plant 3, 1st ear) was “C (Class C ears produced approximately 1-20 seeds)” and the “Ears classified by the number” value (DH0 plants; A, Plant 3, 2nd ear) was “C (Class C ears produced approximately 1-20 seeds)”. For the same compound, the “Ears classified by the number” value (DH0 plants; A, Plant 3, 3rd ear) was “B (Class B ears produced approximately 20-49 seeds)”, the “Ears classified by the number” value (DH0 plants; A, Plant 4, 1st ear) was “A (Class A ears produced approximately 50 seeds)” and the “Ears classified by the number” value (DH0 plants; A, Plant 4, 2nd ear) was “C (Class C ears produced approximately 1-20 seeds)”. The “Ears classified by the number” value (DH0 plants; A, Plant 4, 3rd ear) was 0 (Class 0 ears produced zero seeds), the “Ears classified by the number” value (DH0 plants; B, Plant 1, 1st ear) was “C (Class C ears produced approximately 1-20 seeds)” and the “Ears classified by the number” value (DH0 plants; B, Plant 1, 2nd ear) was “A (Class A ears produced approximately 50 seeds)”. The “Ears classified by the number” value (DH0 plants; B, Plant 1, 3rd ear) was “—”, the “Ears classified by the number” value (DH0 plants; B, Plant 2, 1st ear) was “B (Class B ears produced approximately 20-49 seeds)” and the “Ears classified by the number” value (DH0 plants; B, Plant 2, 2nd ear) was “C (Class C ears produced approximately 1-20 seeds)”. The “Ears classified by the number” value (DH0 plants; B, Plant 2, 3rd ear) was “C (Class C ears produced approximately 1-20 seeds)”, the “Ears classified by the number” value (DH0 plants; B, Plant 3, 1st ear) was “C (Class C ears produced approximately 1-20 seeds)” and the “Ears classified by the number” value (DH0 plants; B, Plant 3, 2nd ear) was “A (Class A ears produced approximately 50 seeds)”. The “Ears classified by the number” value (DH0 plants; B, Plant 3, 3rd ear) was “C (Class C ears produced approximately 1-20 seeds)”, the “Ears classified by the number” value (DH0 plants; B, Plant 4, 1st ear) was “C (Class C ears produced approximately 1-20 seeds)” and the “Ears classified by the number” value (DH0 plants; B, Plant 4, 2nd ear) was “A (Class A ears produced approximately 50 seeds)”. The “Ears classified by the number” value (DH0 plants; B, Plant 4, 3rd ear) was “C (Class C ears produced approximately 1-20 seeds)”, the “Ears classified by the number” value (DH0 plants; Control A, Plant 1, 1st ear) was “B (Class B ears produced approximately 20-49 seeds)” and the “Ears classified by the number” value (DH0 plants; Control A, Plant 1, 2nd ear) was “A (Class A ears produced approximately 50 seeds)”. For the same compound, the “Ears classified by the number” value (DH0 plants; Control A, Plant 1, 3rd ear) was “—”, the “Ears classified by the number” value (DH0 plants; Control A, Plant 2, 1st ear) was “C (Class C ears produced approximately 1-20 seeds)” and the “Ears classified by the number” value (DH0 plants; Control A, Plant 2, 2nd ear) was “B (Class B ears produced approximately 20-49 seeds)”. For the same compound, the “Ears classified by the number” value (DH0 plants; Control A, Plant 2, 3rd ear) was “C (Class C ears produced approximately 1-20 seeds)”, the “Ears classified by the number” value (DH0 plants; Control A, Plant 3, 1st ear) was “A (Class A ears produced approximately 50 seeds)” and the “Ears classified by the number” value (DH0 plants; Control A, Plant 3, 2nd ear) was “C (Class C ears produced approximately 1-20 seeds)”. The “Ears classified by the number” value (DH0 plants; Control A, Plant 3, 3rd ear) was 0 (Class 0 ears produced zero seeds), the “Ears classified by the number” value (DH0 plants; Control A, Plant 4, 1st ear) was “B (Class B ears produced approximately 20-49 seeds)” and the “Ears classified by the number” value (DH0 plants; Control A, Plant 4, 2nd ear) was “B (Class B ears produced approximately 20-49 seeds)”. The “Ears classified by the number” value (DH0 plants; Control A, Plant 4, 3rd ear) was 0 (Class 0 ears produced zero seeds), the “Ears classified by the number” value (DH0 plants; Control B, Plant 1, 1st ear) was “C (Class C ears produced approximately 1-20 seeds)” and the “Ears classified by the number” value (DH0 plants; Control B, Plant 1, 2nd ear) was “C (Class C ears produced approximately 1-20 seeds)”. For the same compound, the “Ears classified by the number” value (DH0 plants; Control B, Plant 1, 3rd ear) was “B (Class B ears produced approximately 20-49 seeds)”, the “Ears classified by the number” value (DH0 plants; Control B, Plant 2, 1st ear) was “A (Class A ears produced approximately 50 seeds)” and the “Ears classified by the number” value (DH0 plants; Control B, Plant 2, 2nd ear) was “A (Class A ears produced approximately 50 seeds)”. The “Ears classified by the number” value (DH0 plants; Control B, Plant 2, 3rd ear) was 0 (Class 0 ears produced zero seeds), the “Ears classified by the number” value (DH0 plants; Control B, Plant 3, 1st ear) was “A (Class A ears produced approximately 50 seeds)” and the “Ears classified by the number” value (DH0 plants; Control B, Plant 3, 2nd ear) was 0 (Class 0 ears produced zero seeds). The “Ears classified by the number” value (DH0 plants; Control B, Plant 3, 3rd ear) was “C (Class C ears produced approximately 1-20 seeds)”, the “Ears classified by the number” value (DH0 plants; Control B, Plant 4, 1st ear) was “B (Class B ears produced approximately 20-49 seeds)” and the “Ears classified by the number” value (DH0 plants; Control B, Plant 4, 2nd ear) was “B (Class B ears produced approximately 20-49 seeds)”. For the same compound, the “Ears classified by the number” value (DH0 plants; Control B, Plant 4, 3rd ear) was “C (Class C ears produced approximately 1-20 seeds)”.
